Calls of active or inactive are those of the source. The calls are words filed in the database; no cut-off is given here.

Data on 23 molecules can be found in ChEMBL document CHEMBL3751732 (Bioorg Med Chem Lett, 2016).

In assay [1] the target is T1, Histamine H4 receptor (Homo sapiens, UniProt Q9H3N8). As to the kind of experiment: Displacement of [3H]histamine from human histamine 4 receptor expressed in Sf9 cell membranes by liquid scintillation counting. Background: In a radioligand displacement assay an active substance lowers the binding of a labelled ligand.
Assay [2] has as its target Histamine H1 receptor (Homo sapiens, UniProt P35367). As to the kind of experiment: Displacement of [3H]mepyramine from human histamine 1 receptor expressed in Sf9 cell membranes by liquid scintillation counting.
Assay [3] has as its target Histamine H2 receptor (Homo sapiens, UniProt P25021). Description: Displacement of [3H]UR-DE257 from human histamine 2 receptor expressed in Sf9 cell membranes by liquid scintillation counting.
The target in assay [4] is T1, Histamine H4 receptor. Description: Antagonist activity at human histamine 4 receptor expressed in Sf9 cell membranes co-expressing Galphai2 and Gbeta1gamma2 assessed as [35S]GTPgammaS binding by scintillation counting. The assay is classed as functional. A general note: GTPγS is a poorly hydrolysed GTP analogue; its binding reports G protein activation.
Assay [5] concerns the target T1, Histamine H4 receptor. Description: Antagonist activity at human histamine 4 receptor expressed in Sf9 cell membranes co-expressing Galphai2 and Gbeta1gamma2 assessed as [35S]GTPgammaS binding by scintillation counting relative to control histamine. The format is functional.
For assay [6], the target named is Histamine H3 receptor (Homo sapiens, UniProt Q9Y5N1). Description: Displacement of [3H]Nalpha-methylhistamine from human histamine 3 receptor expressed in Sf9 cell membranes by liquid scintillation counting.
Histamine H3 receptor, sequence (Q9Y5N1 whole entry): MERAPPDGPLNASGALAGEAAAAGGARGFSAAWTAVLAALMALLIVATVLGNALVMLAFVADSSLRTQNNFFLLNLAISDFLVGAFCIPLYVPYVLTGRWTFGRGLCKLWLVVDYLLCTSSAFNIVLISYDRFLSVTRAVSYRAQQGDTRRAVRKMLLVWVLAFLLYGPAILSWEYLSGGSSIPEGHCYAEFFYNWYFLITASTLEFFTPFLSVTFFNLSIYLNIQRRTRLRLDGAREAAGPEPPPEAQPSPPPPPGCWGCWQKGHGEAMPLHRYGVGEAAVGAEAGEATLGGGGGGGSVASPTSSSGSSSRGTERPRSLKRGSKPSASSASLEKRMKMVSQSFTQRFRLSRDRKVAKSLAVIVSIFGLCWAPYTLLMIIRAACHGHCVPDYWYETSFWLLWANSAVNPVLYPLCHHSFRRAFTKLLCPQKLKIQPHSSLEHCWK

T1 sequence (Q9H3N8 whole entry): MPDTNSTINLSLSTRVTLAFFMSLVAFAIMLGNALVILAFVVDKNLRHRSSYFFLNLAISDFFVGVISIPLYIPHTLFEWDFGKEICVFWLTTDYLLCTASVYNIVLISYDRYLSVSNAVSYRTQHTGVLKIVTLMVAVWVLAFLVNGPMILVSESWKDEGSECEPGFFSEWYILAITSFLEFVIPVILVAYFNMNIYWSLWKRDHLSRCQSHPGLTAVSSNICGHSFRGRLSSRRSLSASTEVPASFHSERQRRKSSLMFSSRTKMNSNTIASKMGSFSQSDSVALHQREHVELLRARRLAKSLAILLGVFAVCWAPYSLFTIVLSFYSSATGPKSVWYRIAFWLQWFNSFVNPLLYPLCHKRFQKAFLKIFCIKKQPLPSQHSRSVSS
Histamine H1 receptor, sequence (P35367 whole entry): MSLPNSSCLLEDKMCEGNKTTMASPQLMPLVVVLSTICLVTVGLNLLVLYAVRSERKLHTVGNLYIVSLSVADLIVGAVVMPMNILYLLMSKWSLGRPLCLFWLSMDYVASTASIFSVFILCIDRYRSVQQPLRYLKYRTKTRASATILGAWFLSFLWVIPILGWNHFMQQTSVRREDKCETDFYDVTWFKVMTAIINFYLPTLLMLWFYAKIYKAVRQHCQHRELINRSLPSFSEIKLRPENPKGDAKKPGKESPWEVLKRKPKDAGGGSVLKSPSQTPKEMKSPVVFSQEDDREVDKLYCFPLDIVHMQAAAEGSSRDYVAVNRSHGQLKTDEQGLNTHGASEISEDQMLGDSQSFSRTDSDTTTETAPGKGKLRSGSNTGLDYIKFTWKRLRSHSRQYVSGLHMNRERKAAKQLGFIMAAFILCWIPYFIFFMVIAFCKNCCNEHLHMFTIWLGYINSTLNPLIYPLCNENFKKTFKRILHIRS
Histamine H2 receptor, sequence (P25021 whole entry): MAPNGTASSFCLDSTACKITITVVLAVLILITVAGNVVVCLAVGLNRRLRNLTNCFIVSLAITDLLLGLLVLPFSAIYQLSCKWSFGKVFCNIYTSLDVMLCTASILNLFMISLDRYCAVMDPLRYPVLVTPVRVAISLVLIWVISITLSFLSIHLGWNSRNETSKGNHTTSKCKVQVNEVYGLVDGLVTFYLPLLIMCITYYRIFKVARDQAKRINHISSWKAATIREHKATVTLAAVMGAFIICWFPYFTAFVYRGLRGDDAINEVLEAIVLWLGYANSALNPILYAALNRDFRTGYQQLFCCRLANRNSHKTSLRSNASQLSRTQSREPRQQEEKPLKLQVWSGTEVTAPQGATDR

With `COc1ccc(CNc2nc3c(c(N4CCN(C)CC4)n2)CCc2ccccc2-3)cc1`, the Ki – broadly, a measure of affinity in units of concentration, obtained from inhibition or displacement – in assay [1] was 4.27 µM; in assay [2] it was 5.75 µM.
For the molecule `CN1CCN(c2cc(-c3ccccc3)nc(NCCc3ccccc3)n2)CC1`, the Ki in assay [1] was 9.77 µM; in assay [2] it was 3.31 µM.
`CN1CCN(c2nc(N)nc3c2CCc2ccccc2-3)CC1`: the Ki in assay [1] is 0.186 µM; in assay [2], 9.12 µM; in assay [3] it was 31.6 µM; in assay [6], 9.77 µM. Further, the EC50 – broadly, the midpoint of the concentration-response curve – in assay [4] is 0.295 µM. Also, in assay [5], the Ratio was -0.47.
For the molecule `COc1ccc(CNc2nc3c(c(N4CCN(C)CC4)n2)-c2ccccc2CC3)cc1`, the figures for the Ki in assay [1] and in assay [2] were 13.8 µM and 1.07 µM, respectively.
Regarding `COc1ccc(CNc2nc(N3CCN(C)CC3)nc3c2CCc2ccccc2-3)cc1-c1ccc(Cl)cc1`, the Ki in assay [1] was 19.5 µM; in assay [2], 6.31 µM.
Consider `CN1CCN(c2nc(NCc3ccccc3)c3c(n2)-c2ccccc2CC3)CC1`, for which the Ki in assay [1] was 14.5 µM; in assay [2] it was 0.891 µM.
For `CN1CCN(c2nc(NCc3ccccc3)cc(-c3ccccc3)n2)CC1`, the inhibition constant Ki in assay [1] is 31.6 µM; in assay [2], 2.51 µM.
On to `COc1ccc(CNc2cc(-c3ccccc3)nc(N3CCN(C)CC3)n2)cc1`, for which the values for the Ki in assay [1] and in assay [2] were 72.4 µM and 4.17 µM, respectively.
Taken in the same sequence, the figures for `CN1CCN(c2nc(NCc3ccc(F)cc3)nc3c2CCc2ccccc2-3)CC1` were 11 µM and 1.95 µM.
Take `CN1CCN(c2nc(NCc3ccccc3)nc3c2CCc2ccccc2-3)CC1`: the inhibitory constant (Ki) in assay [1] is 1.58 µM; in assay [2] it was 2.09 µM; in assay [3], 6.92 µM; in assay [6], 6.03 µM. The EC50 in assay [4] is 0.933 µM. Besides, the Ratio in assay [5] was -1.01.
Turning to `CN1CCN(c2nc(NCCc3ccccc3)c3c(n2)-c2ccccc2CC3)CC1`, the values for the Ki in assay [1] and in assay [2] were 15.1 µM and 8.13 µM, respectively.
Regarding `CN1CCN(C2=Nc3ccc(Cl)cc3Oc3ccccc32)CC1`, the Ki in assay [2] is 0.00832 µM.
Same read-out and setting: the result for `CN1CCN(c2nc(NCc3cccs3)c3cc(Cl)ccc3n2)CC1` reads 0.55 µM.
On to `CN1CCN(c2nc3c(c(N4CCN(C)CC4)n2)-c2ccccc2CC3)CC1`, for which the Ki was 7.76 µM in assay [1] and 1.17 µM in assay [2].
For the molecule `Cc1ccc(CNc2nc3c(c(N4CCN(C)CC4)n2)CCc2ccccc2-3)cc1`, the Ki is 20 µM in assay [1] and 3.39 µM in assay [2].
`CN1CCN(c2nc(NCCc3ccccc3)cc(-c3ccccc3)n2)CC1`: the figures for the inhibition constant Ki in assay [1] and in assay [2] were 36.3 µM and 1.95 µM, respectively.
Regarding `CN1CCN(c2nc(NCCc3ccccc3)nc3c2-c2ccccc2CC3)CC1`, the Ki in assay [1] was 6.76 µM; in assay [2] it was 1.86 µM.
Turning to `CN1CCN(c2nc(NCCc3ccccc3)nc3c2CCc2ccccc2-3)CC1`, the Ki in assay [1] was 9.12 µM; in assay [2], 9.33 µM.
On to `CN1CCN(c2nc(NCc3ccccc3)nc3c2-c2ccccc2CC3)CC1`, for which the Ki in assay [1] was 26.3 µM; in assay [2], 1.91 µM.
In the case of `COc1ccc(CNc2cc(-c3ccccc3)nc(N(C)C)n2)cc1`, the pKi result in assay [1] and in assay [2] was “inactive” in each case.
Consider `CN1CCN(c2cc(-c3ccccc3)nc(NCc3ccccc3)n2)CC1`, for which the inhibition constant Ki is 0.955 µM in assay [1], 1.12 µM in assay [2], 10.2 µM in assay [3] and 2.51 µM in assay [6]. Besides, the EC50 in assay [4] was 0.912 µM. In addition, the Ratio in assay [5] was -1.27.
On to `COc1ccc(CNc2nc(-c3ccccc3)cc(N3CCN(C)CC3)n2)cc1`, for which the results for the Ki in assay [1] and in assay [2] were 1.74 µM and 5.25 µM, respectively.
As to `CN(C)c1nc(NCCc2ccccc2)cc(-c2ccccc2)n1`, the pKi result in assay [1] and in assay [2] was “inactive” each time.
